Values quoted from earlier work in paper PMC7395068, “The evolution of strategies to minimise the risk of human drug-induced liver injury (DILI) in drug discovery and development” (Archives of Toxicology, 2020).
Counter-ions that a name gives are not always drawn. Like-named read-outs stand apart in the source and are kept apart here.

Conditions: cited from earlier work
[1] = binary in vivo DILI call given beside the severity category, ref Chen 2016
[2] = human DILI concern category (LTKB DILIrank), ref Chen 2016

## CCOC(=O)[C@H](CCc1ccccc1)N[C@@H](C)C(=O)N1Cc2cc(OC)c(OC)cc2C[C@H]1C(=O)O [moexipril]
[1]
  DILI +VE (5-8), DILI -VE (-4): -VE
[2]
  DILI severity category: Ambiguous DILI-concern

## CC(C)(O)c1ccccc1CC[C@@H](SCC1(CC(=O)O)CC1)c1cccc(/C=C/c2ccc3ccc(Cl)cc3n2)c1 [montelukast]
In vivo
  DILI +VE (5-8), DILI -VE (-4): +VE
  DILI severity category: vLess-DILI-Concern

## CCOC(=O)Nc1ccc2c(c1)N(C(=O)CCN1CCOCC1)c1ccccc1S2 [moricizine]
[1]
  DILI +VE (5-8), DILI -VE (-4): -VE
[2]
  DILI severity category: Ambiguous DILI-concern

## COc1c(N2C[C@@H]3CCCN[C@@H]3C2)c(F)cc2c(=O)c(C(=O)O)cn(C3CC3)c12 [moxifloxacin]
In vivo
  DILI +VE (5-8), DILI -VE (-4): +VE
  DILI severity category: vLess-DILI-Concern

## COc1c(C)c2c(c(O)c1C/C=C(\C)CCC(=O)OCCN1CCOCC1)C(=O)OC2 [mycophenolate mofetil]
[1]
  DILI +VE (5-8), DILI -VE (-4): +VE
[2]
  DILI severity category: vLess-DILI-Concern

## COc1c(C)c2c(c(O)c1C/C=C(\C)CCC(=O)O)C(=O)OC2 [mycophenolic acid]
[1]
  DILI +VE (5-8), DILI -VE (-4): -VE
[2]
  DILI severity category: Ambiguous DILI-concern

## CCCCCCC(C)(C)c1cc(O)c2c(c1)OC(C)(C)C1CCC(=O)CC21 (stereo not shown) [nabilone]
[1]
  DILI +VE (5-8), DILI -VE (-4): -VE
[2]
  DILI severity category: vNo-DILI-Concern

## COc1ccc2cc(CCC(C)=O)ccc2c1 [nabumetone]
[1]
  DILI +VE (5-8), DILI -VE (-4): -VE
[2]
  DILI severity category: Ambiguous DILI-concern

## CCOc1ccc2ccccc2c1C(=O)N[C@@H]1C(=O)N2[C@@H]1SC(C)(C)[C@@H]2C(=O)O [nafcillin]
[1]
  DILI +VE (5-8), DILI -VE (-4): +VE
[2]
  DILI severity category: vLess-DILI-Concern

## C=C1CC[C@@]2(O)[C@H]3Cc4ccc(O)c5c4[C@@]2(CCN3CC2CC2)[C@H]1O5 [nalmefene hydrochloride]
[1]
  DILI +VE (5-8), DILI -VE (-4): -VE
[2]
  DILI severity category: Ambiguous DILI-concern

## CCCCCCCCCC(=O)O[C@H]1CC[C@H]2[C@@H]3CCC4=CC(=O)CC[C@@H]4[C@H]3CC[C@]12C [nandrolone decanoate]
[1]
  DILI +VE (5-8), DILI -VE (-4): +VE
[2]
  DILI severity category: vMost-DILI-Concern

## CNS(=O)(=O)CCc1ccc2[nH]cc(C3CCN(C)CC3)c2c1 [naratriptan]
[1]
  DILI +VE (5-8), DILI -VE (-4): -VE
[2]
  DILI severity category: Ambiguous DILI-concern

## COc1nc(N)nc2c1ncn2[C@@H]1O[C@H](CO)[C@@H](O)[C@@H]1O [nelarabine]
[1]
  DILI +VE (5-8), DILI -VE (-4): +VE
[2]
  DILI severity category: vLess-DILI-Concern

## NC[C@@H]1O[C@H](O[C@H]2[C@@H](O)[C@H](O[C@@H]3[C@@H](O)[C@H](N)C[C@H](N)[C@H]3O[C@H]3O[C@H](CN)[C@@H](O)[C@H](O)[C@H]3N)O[C@@H]2CO)[C@H](N)[C@@H](O)[C@@H]1O [neomycin]
In vivo
  DILI +VE (5-8), DILI -VE (-4): -VE
  DILI severity category: vNo-DILI-Concern

## CN(C)Cc1ccc(CSCCN/C(=C\[N+](=O)[O-])NCc2ccc3c(c2)OCO3)o1 [niperotidine]
[1]
  DILI +VE (5-8), DILI -VE (-4): +VE
[2]
  DILI severity category: vMost-DILI-Concern

## CC(=O)Oc1ccccc1C(=O)Nc1ncc([N+](=O)[O-])s1 [nitazoxanide]
[1]
  DILI +VE (5-8), DILI -VE (-4): -VE
[2]
  DILI severity category: vNo-DILI-Concern

## O=C1CCCC(=O)C1C(=O)c1ccc(C(F)(F)F)cc1[N+](=O)[O-] [nitisinone]
[1]
  DILI +VE (5-8), DILI -VE (-4): -VE
[2]
  DILI severity category: Ambiguous DILI-concern

## Cc1nc([N+](=O)[O-])cn1-c1ccc([N+](=O)[O-])cc1 [nitrefazole]
[1]
  DILI +VE (5-8), DILI -VE (-4): +VE
[2]
  DILI severity category: vMost-DILI-Concern

## C#C[C@]1(OC(C)=O)CC[C@H]2[C@@H]3CCC4=CC(=O)CC[C@@H]4[C@H]3CC[C@@]21C [norethindrone acetate]
[1]
  DILI +VE (5-8), DILI -VE (-4): -VE
[2]
  DILI severity category: vNo-DILI-Concern

## C[C@@H]1[C@H](O)[C@@H](C)/C=C/C=C/CC/C=C/C=C/C=C/C=C/C(O[C@H]2O[C@H](C)[C@@H](O)[C@H](N)[C@@H]2O)CC2O[C@](O)(CC(O)C(O)CCC(O)CC(O)CC(O)CC(=O)O[C@H]1C)CC(O)C2C(=O)O (stereo partly shown) [nystatin]
[1]
  DILI +VE (5-8), DILI -VE (-4): -VE
[2]
  DILI severity category: vNo-DILI-Concern
